Experimental data reported in ChEMBL document CHEMBL4699627, “Synthesis and biological screening of thiosemicarbazones of substituted 3-acetylcoumarins having d-glucose moiety” (Bioorg Med Chem Lett, 2020).
Converted amounts (≈) assume the structure as drawn.

What was measured:
[1] = test system: Staphylococcus epidermidis; assay: Antibacterial activity against Staphylococcus epidermidis ATCC 12228 assessed as reduction in bacterial growth; type: functional
[2] = test system: Pseudomonas aeruginosa; assay: Antibacterial activity against Pseudomonas aeruginosa ATCC […] assessed as reduction in bacterial growth; type: functional
[3] = test system: Klebsiella pneumoniae; assay: Antibacterial activity against Klebsiella pneumoniae ATCC 4352 assessed as reduction in bacterial growth; type: functional
[4] = test system: Escherichia coli; assay: Antibacterial activity against Escherichia coli ATCC 25922 assessed as reduction in bacterial growth; type: functional
[5] = test system: Salmonella typhimurium; assay: Antibacterial activity against Salmonella typhimurium ATCC 14028 assessed as reduction in bacterial growth; type: functional, Salmonella enterica subsp. enterica serovar Typhimurium; conditions: Salmonella enterica
[6] = test system: Aspergillus niger; assay: Antifungal activity against Aspergillus niger ATCC 439; type: functional
[7] = test system: Saccharomyces cerevisiae; assay: Antifungal activity against Saccharomyces cerevisiae SH 20; type: functional
[8] = test system: Candida albicans; assay: Antifungal activity against Candida albicans ATCC 7754; type: functional
[9] = test system: Staphylococcus aureus; assay: Antibacterial activity against Staphylococcus aureus ATCC 11632 assessed as reduction in bacterial growth; type: functional
[10] = test system: Bacillus subtilis; assay: Antibacterial activity against Bacillus subtilis ATCC 11774 assessed as reduction in bacterial growth; type: functional
[11] = test system: Aspergillus flavus; assay: Antifungal activity against Aspergillus flavus ATCC 204304; type: functional
[12] = test system: MDA-MB-231; assay: Cytotoxicity against human MDA-MB-231 cells incubated for 3 days by MTT assay; type: functional, cell-based; conditions: MDA-MB-231, 72 h
[13] = test system: PC-3; assay: Cytotoxicity against human PC-3 cells incubated for 3 days by MTT assay; type: functional, cell-based; conditions: PC-3, 72 h

Row | MIC [1] | MIC [2] | MIC [3] | MIC [4] | MIC [5] | MIC [6] | MIC [7] | MIC [8] | MIC [9] | MIC [10] | MIC [11] | Structure (SMILES) | IC50 [12] | IC50 [13]
1 | 50 µM (≈ 30.3 µg/mL) | 12.5 µM (≈ 7.57 µg/mL) | 100 µM (≈ 60.6 µg/mL) | 50 µM (≈ 30.3 µg/mL) | 25 µM (≈ 15.1 µg/mL) | 1.56 µM (≈ 0.945 µg/mL) | 25 µM (≈ 15.1 µg/mL) | 3.12 µM (≈ 1.89 µg/mL) | 12.5 µM (≈ 7.57 µg/mL) |  |  | CC(=O)OC[C@H]1O[C@@H](NC(=S)N/N=C(\C)c2cc3cc(C)ccc3oc2=O)[C@H](OC(C)=O)[C@@H](OC(C)=O)[C@@H]1OC(C)=O |  | 
2 | 3.12 µM (≈ 1.94 µg/mL) |  | 1.56 µM (≈ 0.97 µg/mL) | 1.56 µM (≈ 0.97 µg/mL) |  | 6.25 µM (≈ 3.89 µg/mL) | 50 µM (≈ 31.1 µg/mL) | 25 µM (≈ 15.5 µg/mL) | 50 µM (≈ 31.1 µg/mL) | 50 µM (≈ 31.1 µg/mL) | 6.25 µM (≈ 3.89 µg/mL) | COc1cccc2cc(/C(C)=N/NC(=S)N[C@@H]3O[C@H](COC(C)=O)[C@@H](OC(C)=O)[C@H](OC(C)=O)[C@H]3OC(C)=O)c(=O)oc12 |  | 
3 | 1.56 µM (≈ 0.97 µg/mL) | 12.5 µM (≈ 7.77 µg/mL) | 100 µM (≈ 62.2 µg/mL) | 100 µM (≈ 62.2 µg/mL) | 3.12 µM (≈ 1.94 µg/mL) | 3.12 µM (≈ 1.94 µg/mL) | 0.78 µM (≈ 0.485 µg/mL) | > 100 µM | 0.78 µM (≈ 0.485 µg/mL) | 100 µM (≈ 62.2 µg/mL) | 1.56 µM (≈ 0.97 µg/mL) | CC(=O)OC[C@H]1O[C@@H](NC(=S)N/N=C(\C)c2c(C)c3ccc(O)cc3oc2=O)[C@H](OC(C)=O)[C@@H](OC(C)=O)[C@@H]1OC(C)=O |  | 
4 |  | 25 µM (≈ 15.1 µg/mL) | 25 µM (≈ 15.1 µg/mL) | 25 µM (≈ 15.1 µg/mL) |  | 25 µM (≈ 15.1 µg/mL) | > 100 µM | 3.12 µM (≈ 1.89 µg/mL) | 1.56 µM (≈ 0.945 µg/mL) | 100 µM (≈ 60.6 µg/mL) | > 100 µM | CC(=O)OC[C@H]1O[C@@H](NC(=S)N/N=C(\C)c2cc3ccc(C)cc3oc2=O)[C@H](OC(C)=O)[C@@H](OC(C)=O)[C@@H]1OC(C)=O |  | 
5 | 100 µM (≈ 60.6 µg/mL) |  | 50 µM (≈ 30.3 µg/mL) |  |  | 12.5 µM (≈ 7.57 µg/mL) | 12.5 µM (≈ 7.57 µg/mL) | 12.5 µM (≈ 7.57 µg/mL) | 25 µM (≈ 15.1 µg/mL) | > 100 µM | 25 µM (≈ 15.1 µg/mL) | CC(=O)OC[C@H]1O[C@@H](NC(=S)N/N=C(\C)c2c(C)c3ccccc3oc2=O)[C@H](OC(C)=O)[C@@H](OC(C)=O)[C@@H]1OC(C)=O |  | 
6 |  |  |  |  |  |  |  |  |  |  |  | C/C(=N\NC(=S)NN[C@@H]1O[C@H](CO)[C@@H](O)[C@H](O)[C@H]1O)c1ccccn1 | 1.6 µM | 2.8 µM
7 | 12.5 µM (≈ 7.96 µg/mL) |  | 12.5 µM (≈ 7.96 µg/mL) | 25 µM (≈ 15.9 µg/mL) | > 100 µM | 3.12 µM (≈ 1.99 µg/mL) | 12.5 µM (≈ 7.96 µg/mL) | 0.78 µM (≈ 0.497 µg/mL) | 0.78 µM (≈ 0.497 µg/mL) | 12.5 µM (≈ 7.96 µg/mL) | 12.5 µM (≈ 7.96 µg/mL) | CC(=O)OC[C@H]1O[C@@H](NC(=S)N/N=C(\C)c2cc3cccc([N+](=O)[O-])c3oc2=O)[C@H](OC(C)=O)[C@@H](OC(C)=O)[C@@H]1OC(C)=O |  | 
8 | > 100 µM | 3.12 µM (≈ 1.96 µg/mL) |  | 25 µM (≈ 15.7 µg/mL) | 50 µM (≈ 31.3 µg/mL) | 100 µM (≈ 62.6 µg/mL) | 50 µM (≈ 31.3 µg/mL) | 1.56 µM (≈ 0.977 µg/mL) | > 100 µM |  | 12.5 µM (≈ 7.83 µg/mL) | CC(=O)OC[C@H]1O[C@@H](NC(=S)N/N=C(\C)c2cc3cc(Cl)ccc3oc2=O)[C@H](OC(C)=O)[C@@H](OC(C)=O)[C@@H]1OC(C)=O |  | 
9 | 3.12 µM (≈ 2.1 µg/mL) | 3.12 µM (≈ 2.1 µg/mL) | 25 µM (≈ 16.8 µg/mL) | 3.12 µM (≈ 2.1 µg/mL) | 25 µM (≈ 16.8 µg/mL) |  | 25 µM (≈ 16.8 µg/mL) | 50 µM (≈ 33.5 µg/mL) | 100 µM (≈ 67 µg/mL) |  | 6.25 µM (≈ 4.19 µg/mL) | CC(=O)OC[C@H]1O[C@@H](NC(=S)N/N=C(\C)c2cc3cc(Br)ccc3oc2=O)[C@H](OC(C)=O)[C@@H](OC(C)=O)[C@@H]1OC(C)=O |  | 
